The test system of this assay is LG0567-F671-PDC multi-cell spheroid viability. Briefly: Anticancer human tumor LG0567-F671-PDC patient-derived lung adenocarcinoma cell line growth inhibition [IpAb]. The note with it: for viability, T/C: stronger effect = lower value. The procedure, abridged:
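Spheroids of 60% malignant cells, 25% HUVEC and 15% MSC were exposed to targeted agents combined with ipatasertib or abemaciclib. Doses started at or near clinical Cmax (10 microM when unknown) and fell in half-log steps.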

The mark [1] stands for this setting: curve of first compound, second compound 0.01 µM.
[2] abbreviates: curve of first compound, second compound 0.0316 µM.
The mark [3] stands for this setting: curve of first compound, second compound 0.1 µM.
The mark [4] stands for this setting: curve of first compound, second compound 0.316 µM.
The mark [5] stands for this setting: curve of first compound, second compound 1 µM.
[6] abbreviates: second compound 0.01 µM, first compound 0.00949 µM.
Setting [7] is: second compound 0.01 µM, first compound 0.03 µM.
Setting [8] is: second compound 0.01 µM, first compound 0.0949 µM.
Where [9] appears, read: second compound 0.01 µM, first compound 0.3 µM.
[10] abbreviates: second compound 0.0316 µM, first compound 0.00949 µM.
The mark [11] stands for this setting: second compound 0.0316 µM, first compound 0.03 µM.
Setting [12] is: second compound 0.0316 µM, first compound 0.0949 µM.
Where [13] appears, read: second compound 0.0316 µM, first compound 0.3 µM.
Where [14] appears, read: second compound 0.1 µM, first compound 0.00949 µM.
Setting [15] is: second compound 0.1 µM, first compound 0.03 µM.
Where [16] appears, read: second compound 0.1 µM, first compound 0.0949 µM.
[17] abbreviates: second compound 0.1 µM, first compound 0.3 µM.
The mark [18] stands for this setting: second compound 0.316 µM, first compound 0.00949 µM.
[19] abbreviates: second compound 0.316 µM, first compound 0.03 µM.
Where [20] appears, read: second compound 0.316 µM, first compound 0.0949 µM.
Where [21] appears, read: second compound 0.316 µM, first compound 0.3 µM.
[22] abbreviates: second compound 1 µM, first compound 0.00949 µM.
Setting [23] is: second compound 1 µM, first compound 0.03 µM.
The mark [24] stands for this setting: second compound 1 µM, first compound 0.0949 µM.
[25] abbreviates: second compound 1 µM, first compound 0.3 µM.

Molecules are shown by their SMILES. Values joined by “and” are separate entries in the source; they are usually repeats but may differ in a detail not shown here. Equal values may be shown once.
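Also: viability read after 7 days of drug exposure.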
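For viability, T/C in this document: 100% = DMSO vehicle control luminescence.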

With `COc1c(OCCCN2CCOCC2)ccc2c3n(c(=NC(=O)c4cnc(N)nc4)nc12)CCN3`, the viability, T/C (usually the ratio of treated to control) is 102% (compound 0.00316 µM); 75.8% and 88.7% (compound 0.01 µM); 59.6% and 64.5% (compound 0.0316 µM); 48.8% and 42.4% (compound 0.1 µM); 35.9% and 36.7% (compound 0.316 µM); 33.4% and 31.1% (compound 1 µM). Further, where the note is “curve of compound”, the IC50 (usually the concentration that gives 50% inhibition) is 75 nM and 69.6 nM.

Take `C=CC(=O)N1CCN(c2nc(=O)n(-c3c(C)ccnc3C(C)C)c3nc(-c4c(O)cccc4F)c(F)cc23)C(C)C1` (stereo unspecified) + CCN1CCN(Cc2ccc(Nc3ncc(F)c(-c4cc(F)c5nc(C)n(C(C)C)c5c4)n3)nc2)CC1: the IC50 by setting is: under setting [1], under 31.6 nM; under setting [2], under 31.6 nM; under setting [3], under 31.6 nM; under setting [4], under 31.6 nM; under setting [5], under 31.6 nM. Moreover, the viability, T/C was 21.1% (second compound 0.01 µM, first compound 0.0316 µM); 19.5% (second compound 0.01 µM, first compound 0.1 µM); 14.9% (second compound 0.01 µM, first compound 0.316 µM); 19.8% (second compound 0.01 µM, first compound 1 µM); 17.1% (second compound 0.01 µM, first compound 3.16 µM); 17.5% (second compound 0.01 µM, first compound 10 µM). In addition, the viability, T/C is 18.4% (second compound 0.0316 µM, first compound 0.0316 µM); 14.3% (second compound 0.0316 µM, first compound 0.1 µM); 15.7% (second compound 0.0316 µM, first compound 0.316 µM); 15.9% (second compound 0.0316 µM, first compound 1 µM); 13.1% (second compound 0.0316 µM, first compound 3.16 µM); 14% (second compound 0.0316 µM, first compound 10 µM). The viability, T/C was 15.5% (second compound 0.1 µM, first compound 0.0316 µM); 15.8% (second compound 0.1 µM, first compound 0.1 µM); 16.6% (second compound 0.1 µM, first compound 0.316 µM); 13.2% (second compound 0.1 µM, first compound 1 µM); 13.8% (second compound 0.1 µM, first compound 3.16 µM); 13.9% (second compound 0.1 µM, first compound 10 µM). The viability, T/C was 16.2% (second compound 0.316 µM, first compound 0.0316 µM); 18.4% (second compound 0.316 µM, first compound 0.1 µM); 22.1% (second compound 0.316 µM, first compound 0.316 µM); 18.2% (second compound 0.316 µM, first compound 1 µM); 16.6% (second compound 0.316 µM, first compound 3.16 µM); 16% (second compound 0.316 µM, first compound 10 µM). For the same molecule, the viability, T/C is 18.6% (second compound 1 µM, first compound 0.0316 µM); 23% (second compound 1 µM, first compound 0.1 µM); 27.1% (second compound 1 µM, first compound 0.316 µM); 18.9% (second compound 1 µM, first compound 1 µM); 25.8% (second compound 1 µM, first compound 3.16 µM); 21.1% (second compound 1 µM, first compound 10 µM).

Consider `C=CC(=O)N1CCN(c2nc(=O)n(-c3c(C)ccnc3C(C)C)c3nc(-c4c(O)cccc4F)c(F)cc23)C(C)C1` (stereo unspecified), for which the viability, T/C is, setting by setting: (compound 0.0316 µM) 26.6% and 19.1%; (compound 0.1 µM) 18.9% and 20.1%; (compound 0.316 µM) 19.7% and 18.1%; (compound 1 µM) 18.6% and 17.6%; (compound 3.16 µM) 16% and 20.2%; (compound 10 µM) 20.3% and 18.5%. For the same molecule, the IC50 (curve of compound) was under 31.6 nM.

Regarding `CC(C)(C)c1cnc(CSc2cnc(NC(=O)C3CCNCC3)s2)o1` + CCN1CCN(Cc2ccc(Nc3ncc(F)c(-c4cc(F)c5nc(C)n(C(C)C)c5c4)n3)nc2)CC1, the IC50 by setting is: under setting [1], 152 nM; under setting [2], 129 nM; under setting [3], 106 nM; under setting [4], 74.2 nM; under setting [5], 52.5 nM. The viability, T/C runs as follows: under setting [6], 108%; under setting [7], 118%; under setting [8], 82.8%; under setting [9], 3.32%; (second compound 0.01 µM, first compound 0.949 µM) 1.33%; (second compound 0.01 µM, first compound 3 µM) 0.84%. Further, the viability, T/C under setting [10] was 86.5%; the viability, T/C under setting [11] was 92.3%; the viability, T/C under setting [12] is 66.8%; the viability, T/C under setting [13] was 4.66%; the viability, T/C (second compound 0.0316 µM, first compound 0.949 µM) was 1.42%; the viability, T/C (second compound 0.0316 µM, first compound 3 µM) was 0.84%. Also, the viability, T/C reads like this: under setting [14], 62.2%; under setting [15], 81.8%; under setting [16], 55.4%; under setting [17], 2.56%; (second compound 0.1 µM, first compound 0.949 µM) 1.28%; (second compound 0.1 µM, first compound 3 µM) 0.81%. Further, the viability, T/C under setting [18] was 56%; the viability, T/C under setting [19] is 73.7%; the viability, T/C under setting [20] was 45.9%; the viability, T/C under setting [21] is 3.08%; the viability, T/C (second compound 0.316 µM, first compound 0.949 µM) is 1.56%; the viability, T/C (second compound 0.316 µM, first compound 3 µM) was 1.05%. The viability, T/C is, setting by setting: under setting [22], 58.5%; under setting [23], 66%; under setting [24], 37%; under setting [25], 4.69%; (second compound 1 µM, first compound 0.949 µM) 2.05%; (second compound 1 µM, first compound 3 µM) 1.1%.

On to `CC(=O)c1c(C)c2cnc(Nc3ccc(N4CCNCC4)cn3)nc2n(C2CCCC2)c1=O` + CCN1CCN(Cc2ccc(Nc3ncc(F)c(-c4cc(F)c5nc(C)n(C(C)C)c5c4)n3)nc2)CC1, for which the IC50 by setting is: under setting [1], over 300 nM; under setting [2], over 300 nM; under setting [3], over 300 nM; under setting [4], over 300 nM; under setting [5], over 300 nM. Besides, the viability, T/C is, setting by setting: (second compound 0.01 µM, first compound 0.000949 µM) 74.8%; (second compound 0.01 µM, first compound 0.003 µM) 93.4%; under setting [6], 87.8%; under setting [7], 62.5%; under setting [8], 82.8%; under setting [9], 69.2%. Moreover, the viability, T/C (second compound 0.0316 µM, first compound 0.000949 µM) is 83%; the viability, T/C (second compound 0.0316 µM, first compound 0.003 µM) is 65.1%; the viability, T/C under setting [10] is 94.1%; the viability, T/C under setting [11] is 75.2%; the viability, T/C under setting [12] is 55.4%; the viability, T/C under setting [13] is 57.4%. Further, the viability, T/C by setting is: (second compound 0.1 µM, first compound 0.000949 µM) 84.4%; (second compound 0.1 µM, first compound 0.003 µM) 71.2%; under setting [14], 62.6%; under setting [15], 80.2%; under setting [16], 60.3%; under setting [17], 51.2%. Moreover, the viability, T/C (second compound 0.316 µM, first compound 0.000949 µM) is 60.7%; the viability, T/C (second compound 0.316 µM, first compound 0.003 µM) was 51.7%; the viability, T/C under setting [18] was 67.1%; the viability, T/C under setting [19] is 49.4%; the viability, T/C under setting [20] is 56.8%; the viability, T/C under setting [21] is 50.7%. Besides, the viability, T/C reads like this: (second compound 1 µM, first compound 0.000949 µM) 53.4%; (second compound 1 µM, first compound 0.003 µM) 76.6%; under setting [22], 69%; under setting [23], 65.5%; under setting [24], 63.7%; under setting [25], 54.2%.

With `CC(C)(C)c1cnc(CSc2cnc(NC(=O)C3CCNCC3)s2)o1`, the viability, T/C (compound 0.00949 µM) is 110% and 111%; the viability, T/C (compound 0.03 µM) was 113% and 95.4%; the viability, T/C (compound 0.0949 µM) was 97.6% and 73.8%; the viability, T/C (compound 0.3 µM) is 6.76% and 3.49%; the viability, T/C (compound 0.949 µM) is 2.03% and 1.44%; the viability, T/C (compound 3 µM) is 0.9% and 0.89%. In addition, the IC50 (curve of compound) was 173 nM and 140 nM.

Values taken from PubChem BioAssay AID2060332 (Molecular Pharmacology Branch, DTP, NCI, 2025).
